Measurements reported in patent US9549560B2, “Pesticidal compositions and related methods” (DOW AGROSCIENCES LLC, priority 2013, dated 2017).

Legend:
[1] = tested on: Sweetpotato Whitefly-Crawler (Bemisia tabaci); test: Insecticidal test for Sweetpotato Whitefly-Crawler (WF) (BEMITA) in foliar spray assay on cotton plants; type: in vivo; details: 216 h, 200 ppm foliar spray, graded after 9 days, Abbott corrected % control, read-out: % Control (or Mortality) rating, WF
Protocol: Cotton plants (Gossypium hirsutum) grown in 3-inch pots, with 1 small (4-5 cm) true leaves, were used as test substrate. The plants were infested with 200-400 whitefly eggs 4-5 days prior to chemical application. Four pots with individual plants were used for each treatment. Test compounds (2 mg) were dissolved in 1 mL of acetone solvent, forming stock solutions of 2000 ppm test compound. The stock solutions were diluted 10× with 0.025% Tween 20 in H2O (diluents) to obtain the solution at 200 ppm test compound. A hand-held aspirator-type sprayer was used for spraying a solution to both sides of cotton leaves until runoff. Reference plants (solvent check) were sprayed with the diluent only containing 10% by volume of acetone solvent. Treated plants were held in a holding room for 9 days at approximately 25° C. and ambient relative humidity (RH) prior to grading. Evaluation was conducted by counting the number of live 3-4 nymph stage per plant under a microscope. Percent control was measured by using Abbott's correction formula (W. S. Abbott, “A Method of Computing the Effectiveness of an Insecticide,” J. Econ. Entomol. 18 (1925), pp. 265-267) as follows. Corrected % Control=100*(X−Y)/X
X=No. of live nymphs on solvent check plants and
Y=No. of live nymphs on treated plants.
(§1) Biological Data for Green Peach Aphid (GPA) (MYZUPE) and Sweetpotato Whitefly-crawler (WF) (BEMITA)” (See Table Section).

[2] = tested on: Green Peach Aphid (Myzus persicae); test: Bioassay for Green Peach Aphid (GPA) (MYZUPE), foliar spray on cabbage seedlings; type: in vivo; details: 72 h, 200 ppm foliar spray, graded after three days, Abbott corrected % control, read-out: % Control (or Mortality) rating, GPA
Protocol: Cabbage seedlings grown in 3-inch pots, with 2-3 small (3-5 cm) true leaves, were used as test substrate. The seedlings were infested with 20-50 GPA (wingless adult and nymph stages) one day prior to chemical application. Four pots with individual seedlings were used for each treatment. Test compounds (2 mg) were dissolved in 2 mL of acetone/methanol (1:1) solvent, forming stock solutions of 1000 ppm test compound. The stock solutions were diluted 5× with 0.025% Tween 20 in H2O to obtain the solution at 200 ppm test compound. A hand-held aspirator-type sprayer was used for spraying a solution to both sides of […] leaves until runoff. Reference plants (solvent check) were sprayed with the diluent only containing 20% by volume of acetone/methanol (1:1) solvent. Treated plants were held in a holding room for three days at approximately 25° C. and ambient relative humidity (RH) prior to grading. Evaluation was conducted by counting the number of live aphids per plant under a microscope. Percent control was measured by using Abbott's correction formula (W. S. Abbott, “A Method of Computing the Effectiveness of an Insecticide,” J. Econ. Entomol. 18 (1925), pp. 265-267) as follows. Corrected % Control=100*(X−Y)/X
X=No. of live aphids on solvent check plants and
Y=No. of live aphids on treated plants
as §1

SMILES | mortality at 200 ppm [1] [%] | mortality at 200 ppm [2] [%]
CN(C(=O)CCSCCCC(F)(F)F)c1cn(-c2ccc[n+]([O-])c2)nc1Cl [Compound P62, 3-(3-Chloro-4-(N-methyl-3-((4,4,4-trifluorobutyl)thio)propanamido)-1H-pyrazol-1-yl)pyridine 1-oxide] | 80 to 100 | 80 to 100
CCN(C(=O)CC[S+]([O-])CCCC(F)(F)F)c1cn(-c2ccc[n+]([O-])c2)nc1C (stereo not shown) [Compound P81, 3-(4-(N-Ethyl-3-((4,4,4-trilluorobutyl)sulfinyl)propanamido)-3-methyl-1H-pyrazol-1-yl)pyridine 1-oxide] | 80 to 100 | 80 to 100
CCN(C(=O)CS(C)(=O)=O)c1cn(-c2ccc[n+]([O-])c2)nc1Cl [FA11, 3-(3-chloro-4-(N-ethyl-2-(methylsulfonyl)acetamido)-1H-pyrazol-1-yl)pyridine 1-oxide] | 0 to 80 | 80 to 100
CCNc1cn(-c2ccc[n+]([O-])c2)nc1C [CA2, 3-(4-(Ethylamino)-3-methyl-1H-pyrazol-1-yl)pyridine 1-oxide] | 80 to 100 | 0 to 80
C#CCN(C(=O)CCSCCCC(F)(F)F)c1cn(-c2ccc[n+]([O-])c2)nc1Cl [Compound P71, 3-(3-Chloro-4-(N-(prop-2-yn-1-yl)-3-((4,4,4-trifluorobutyl)thio)propanamido)-1H-pyrazol-1-yl)pyridine 1-oxide] | 80 to 100 | 80 to 100
CCN(C(=O)CCSC)c1cn(-c2ccc[n+]([O-])c2)nc1Cl [Compound F2, 3-(3-Chloro-4-(N-ethyl-3-(methylthio)propanamido)-1H-pyrazol-1-yl) pyridine 1-oxide] | 80 to 100 | 80 to 100
CCN(C(=O)CC[S+]([O-])CC1CC1(F)F)c1cn(-c2ccc[n+]([O-])c2)nc1C (stereo not shown) [Compound P75, 3-(4-(3-(((2,2-Difluorocyclopropyl)methyl)sulfinyl)-N-ethylpropan-amido)-3-methyl-1H-pyrazol-1-yl)pyridine 1-oxide] | 80 to 100 | 80 to 100
CCN(C(=O)CC[S+]([O-])CCCC(F)(F)F)c1cn(-c2ccc[n+]([O-])c2)nc1Cl (stereo not shown) [Compound P54, 3-(3-Chloro-4-(N-ethyl-3-((4,4,4-trilluorobutyl)sulfinyl)propanamido)-1H-pyrazol-1-yl)pyridine 1-oxide] | 80 to 100 | 80 to 100
